The text below walks through data of ChEMBL document CHEMBL5236551, “Andrographolide and its derivatives: Current achievements and future perspectives” (Eur J Med Chem, 2021).

One test deals with Mus musculus. In words: Anti-inflammatory activity in BALB/c mouse model of colitis assessed as suppression of DSS-induced NF-kappa-B p65 expression in colon tissue at 200 mg/kg, IG for 8 days relative to control. The class given is functional. The following applies: po, 192 h, time 8 day.
A short description of test [1]: Inhibition of NF-kappa-B signaling pathway in human HeLa cells assessed as decrease in phosphorylated NF-kappaB p65 level treated for 4 hrs by Western blot analysis. The class given is cell-based.
A further test has as its system Escherichia coli. Description: Antibacterial activity against Escherichia coli assessed as bacterial growth inhibition incubated for 24 hrs. The class given is functional, organism-based.
A further test deals with Enterococcus faecalis. Description: Antibacterial activity against Enterococcus faecalis assessed as bacterial growth inhibition incubated for 24 hrs. The class given is functional, organism-based.
In a further test the test system is Staphylococcus aureus. Description: Antibacterial activity against Staphylococcus aureus assessed as bacterial growth inhibition incubated for 24 hrs. The class given is functional, organism-based.
Test [2] has as its system Human immunodeficiency virus 1. In words: Antiviral activity against HIV-1 infected in human C8166 cells. The class given is functional, organism-based. The following applies: Human immunodeficiency virus 1, C8166.
Test [3] has as its system Rattus norvegicus. In words: Anti-fibrotic activity in rat model of unilateral ureteral obstruction-induced renal fibrosis assessed as inhibition rate at 0.15 mmol/Kg relative to control. The following applies: Kidney. The class given is functional.
In test [4] the test system is Rattus norvegicus. In words: Anti-fibrotic activity in rat model of bleomycin-induced lung fibrosis assessed as inhibition rate at 250 mg/kg relative to control. The class given is functional.
The subject of test [5] is Rattus norvegicus. Description: Anti-fibrotic activity in rat model of isoproterenol-induced myocardial fibrosis assessed as inhibition rate at 15 mg/kg relative to control. The following applies: Myocardium. The class given is functional.
For the next test, the system named is Col2. Description: Cytotoxicity against human Col2 cells assessed as cell growth inhibition by SRB assay. The class given is functional. Particulars: read-out: ED50 (the source's name).
The test system of a further test is P388. In words: Cytotoxicity against mouse P388 cells assessed as cell growth inhibition by SRB assay. The class given is functional. Particulars: read-out: ED50 (the source's name).
Test [6] in a line: Cytotoxicity against rat ASK cells assessed as cell growth inhibition by SRB assay. The class given is functional. Particulars: read-out: ED50 (the source's name).
The nature of test [7]: Cytotoxicity against human Lu1 cells assessed as cell growth inhibition by SRB assay. The class given is functional. The following applies: read-out: ED50 (the source's name). On the technique in general: In SRB staining, fixed cells bind dye roughly in proportion to their protein.
The test system of test [8] is MCF7. In words: Cytotoxicity against human MCF7 cells assessed as cell growth inhibition by SRB assay. The class given is functional. Particulars: read-out: ED50 (the source's name).
The test system of the next test is KB. Description: Cytotoxicity against human KB cells assessed as cell growth inhibition by SRB assay. The class given is functional. Particulars: read-out: ED50 (the source's name).
A short description of test [9]: Antimigratory activity against Ang II-induced human Cardiac fibroblast cells assessed as inhibition rate at 0.63 uM relative to control. The class given is functional.
Test [10] can be described thus: Inhibition of TGF-beta1 induced mesenchymal transformation in human A549 cells assessed as inhibition rate at 0.63 uM relative to control. The class given is functional.
Test [11] in a line: Antimigratory activity against human LX2 cells assessed as inhibition rate at 5 uM relative to control. The class given is functional. The following applies: LX-2.
In a further test the test system is K562. Description: Antiproliferative activity against human K562 cells assessed as cell growth inhibition measured after 24 hrs by MTT assay. The class given is functional, cell-based. The following applies: K562, 24 h. (Tetrazolium dyes change colour on reduction, which living cells bring about.)
The test system of test [12] is MCF7. Description: Antiproliferative activity against human MCF7 cells assessed as cell growth inhibition measured after 24 hrs by MTT assay. The class given is functional, cell-based.
Test [13] relates to Rattus norvegicus. In words: Anti-inflammatory activity against egg white-induced paw edema in rat model assessed as detumescence rate measured after 6 hrs relative to control. The class given is functional.
The test system of another test is HCT-116. Description: Antiproliferative activity against human HCT-116 cells assessed as cell growth inhibition measured after 24 hrs by MTT assay. The class given is functional.
A further test has as its system T-24. Description: Antiproliferative activity against human T24 cells assessed as cell growth inhibition measured after 48 hrs by MTT assay. Particulars: T-24, 48 h. The class given is functional, cell-based.
A further test deals with HepG2. In words: Antiproliferative activity against human HepG2 cells assessed as cell growth inhibition measured after 48 hrs by MTT assay. The class given is functional, cell-based. Particulars: HepG2, 48 h.
In the next test the test system is NB-4. Description: Antiproliferative activity against human NB-4 cells assessed as cell growth inhibition measured after 48 hrs by MTT assay. The class given is functional, cell-based. The following applies: NB-4, 48 h.
The test system of another test is J82. Description: Antiproliferative activity against human J82 cells assessed as cell growth inhibition measured after 48 hrs by MTT assay. The class given is functional, cell-based. Particulars: J82, 48 h.
A further test has as its system A549. Description: Antiproliferative activity against human A549 cells assessed as cell growth inhibition measured after 48 hrs by MTT assay. The class given is functional, cell-based. The following applies: A549, 48 h.
For test [14], the system named is MCF7. Description: Antiproliferative activity against human MCF7 cells assessed as cell growth inhibition measured after 48 hrs by MTT assay. The class given is functional, cell-based. Particulars: MCF7, 48 h.
Test [15] is described as follows: Antiproliferative activity against human HCT cell line assessed as cell growth inhibition measured after 48 hrs by MTT assay. The class given is functional, cell-based.
The nature of test [16]: Antiproliferative activity against human NTUB1 cells assessed as cell growth inhibition measured after 48 hrs by MTT assay. The class given is functional, cell-based. Particulars: NTUB1, 48 h.
The test system of a further test is MGC-803. Description: Antiproliferative activity against human MGC-803 cells assessed as cell growth inhibition measured after 48 hrs by MTT assay. The class given is functional, cell-based. Particulars: MGC-803, 48 h.

`C=C1CCC2[C@](C)(COC(C)=O)[C@H](OC(C)=O)CC[C@@]2(C)[C@@H]1C/C=C1/C(=O)OC[C@H]1OC(C)=O` (stereo partly specified): the inhibition in vivo (commonly the share of the control response that was lost under treatment) at 200 mg/kg in the test with Mus musculus stood at 50.4%.

Take `C=C1CC[C@@H]2[C@](C)(CO)[C@H](O)CC[C@@]2(C)[C@@H]1C/C=C1/C(=O)OC[C@@H]1Oc1ccc([N+](=O)[O-])cc1OC`: the EC50 in [1] is 2 µM.

Turning to `C=C1CCC2[C@](C)(CO)C(=O)CC[C@@]2(C)[C@@H]1C/C=C1/C(=O)OC[C@@H]1Oc1cccc2cccnc12` (stereo partly specified), the half-maximal inhibitory concentration (IC50) (commonly the concentration at which inhibition is half-maximal) was 27.9 µM with Escherichia coli, 9.1 µM with Enterococcus faecalis and 27.6 µM with Staphylococcus aureus.

For `C=C1CCC2[C@](C)(CO)/C(=N\O)CC[C@@]2(C)[C@@H]1/C=C/C1=CCOC1=O` (stereo partly specified), the 50% inhibitory concentration (IC50) in [2] was 40.9 µM.

`C=C1CCC2[C@](C)(CO)[C@H](O)CC[C@@]2(C)[C@@H]1/C=C/C1=CC(=C\c2ccc(Cl)cc2)/OC1=O` (stereo partly specified): the inhibition in vivo at 150 µmol/kg in the test with Rattus norvegicus [3] was above 85%. In addition, the inhibition in vivo at 250 mg/kg with Rattus norvegicus [4] is above 85%. For the same compound, in the test on Rattus norvegicus [5], the inhibition in vivo at 15 mg/kg is above 90%.

In the case of `C=C1CC[C@@H]2[C@](C)(CO[Si](C)(C)C(C)(C)C)[C@H](OC(C)=O)CC[C@@]2(C)[C@@H]1CC(OC(C)=O)C1=CCOC1=O` (stereo partly specified), the EC50 in the test on Col2 worked out at 2 µM; with P388, 0.55 µM; in test [6], 1.98 µM; in test [7], 2.09 µM; in the test with MCF7 [8] it was 2.13 µM; in the test with KB, 2.35 µM.

As for `C[C@@]12CCC3[C@](C)(CO)[C@H](O)CC[C@@]3(C)[C@@H]1CC(C1=C/C(=C\c3ccc(Cl)cc3)OC1=O)O2` (stereo partly specified), the inhibition (commonly the change of the read-out against control, counted positive when it falls) at 0.63 µM in test [9] is above 65%; in test [10], above 70%. In addition, the inhibition at 5 µM in test [11] is above 60%.

`C=C1CCC2[C@](C)(CO)[C@H](O)CC[C@@]2(C)[C@@H]1C/C=C1/C(=O)OC[C@@H]1Oc1cccc2cccnc12` (stereo partly specified): the IC50 was 21.6 µM with Escherichia coli, 6.3 µM with Enterococcus faecalis and 37.5 µM in the test on Staphylococcus aureus.

Consider `C=C1CCC2[C@]3(C)COC(c4ccc(OCc5cn(-c6ccc(C(C)=O)cc6)nn5)cc4)O[C@@H]3CC[C@@]2(C)[C@@H]1C/C=C1/C(=O)OCC1O` (stereo partly specified), for which the IC50 in the test with K562 stood at 8 µM.

As to `C=C1CCC2[C@](C)(CO)[C@H](OC(=O)CCC(=O)OC(C)CCOc3no[n+]([O-])c3S(=O)(=O)c3ccccc3)CC[C@@]2(C)[C@@H]1/C=C/C1=CCOC1=O` (stereo partly specified), the IC50 stood at 2.91 µM with MCF7 [12] (MCF7, 24 h) and 1.55 µM in the test with K562.

As to `C=C1CCC2[C@](C)(CO)[C@H](O)CC[C@@]2(C)[C@@H]1CCC1=CCOC1=O` (stereo partly specified), in the test with Rattus norvegicus [13], the “inhibition (INH)” value turned out to be 87.53%.

Regarding `C=C1CCC2[C@]3(C)COC(c4ccccc4Br)O[C@@H]3CC[C@@]2(C)[C@@H]1C/C=C1/C(=O)OC[C@H]1O` (stereo partly specified), the GI50 (in general, the concentration that inhibits growth by half) came to 5.3 µM with MCF7 [12] (MCF7, time 24 hrs) and 4.9 µM in the test on HCT-116.

Consider `CC1=C2[C@H]3O[C@]34CC[C@@H]3[C@](C)(COC(=O)c5ccccc5)[C@H](OC(=O)c5ccccc5)CC[C@@]3(C)[C@@H]4[C@H]3O[C@@]23OC1=O`, for which the IC50 with T-24 worked out at 1.04 µM; in the test on HepG2, 2.31 µM; in the test with NB-4, 0.87 µM; in the test with J82, 2.04 µM; in the test on A549 it was 2.03 µM; in the test on MCF7 [14] it was 1.21 µM. The IC50 in test [15] is 0.94 µM; in test [16], 0.55 µM; in the test with MGC-803, 1.85 µM.
